The target of assay [1] is T1, Cdc7 (Homo sapiens, UniProt O00311). Briefly: Cdc7 cell pharmacodynamics assay Method 3: pS53MCM2 levels in SW48 cells. The following applies: 6 hours treatment, read-out: Biomarker Method 3 (pEC50) (converted). Set-up: endogenous in cells; host or cells: SW48. The format is cell-based. The gist of the method:
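SW48 cells (30,000/well) settled overnight, then compound-treated 6 h at 37 °C. Lysates captured on total-MCM2 antibody plates overnight at 4 °C; pMCM2 Ser53 detected with rabbit antibody plus HRP anti-rabbit and chemiluminescent substrate, luminescence read.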

Assay [2] deals with T1, Cdc7. Briefly: Cdc7 cell pharmacodynamics assay Method 1: pS53MCM2 levels in HCT116 cells. The format is cell-based. Set-up: endogenous in cells. The following applies: 6 hours treatment, read-out: Biomarker Method 1 (pEC50) (converted). The method in brief: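 HCT116 cells (wild-type p53), 20,000/well, treated with compound for 6 h at 37 °C. Lysates captured on total-MCM2 antibody plates, then probed with anti-pMCM2 Ser53 and HRP secondary; chemiluminescent sandwich ELISA readout of pS53MCM2 levels.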

Eight compounds from patent US11766434B2, “Pyrimidinone derivatives as CDC7 inhibitors” (Cancer Research Technology Limited, priority 2016, dated 2023) can be followed below.

T1 sequence (O00311 whole entry): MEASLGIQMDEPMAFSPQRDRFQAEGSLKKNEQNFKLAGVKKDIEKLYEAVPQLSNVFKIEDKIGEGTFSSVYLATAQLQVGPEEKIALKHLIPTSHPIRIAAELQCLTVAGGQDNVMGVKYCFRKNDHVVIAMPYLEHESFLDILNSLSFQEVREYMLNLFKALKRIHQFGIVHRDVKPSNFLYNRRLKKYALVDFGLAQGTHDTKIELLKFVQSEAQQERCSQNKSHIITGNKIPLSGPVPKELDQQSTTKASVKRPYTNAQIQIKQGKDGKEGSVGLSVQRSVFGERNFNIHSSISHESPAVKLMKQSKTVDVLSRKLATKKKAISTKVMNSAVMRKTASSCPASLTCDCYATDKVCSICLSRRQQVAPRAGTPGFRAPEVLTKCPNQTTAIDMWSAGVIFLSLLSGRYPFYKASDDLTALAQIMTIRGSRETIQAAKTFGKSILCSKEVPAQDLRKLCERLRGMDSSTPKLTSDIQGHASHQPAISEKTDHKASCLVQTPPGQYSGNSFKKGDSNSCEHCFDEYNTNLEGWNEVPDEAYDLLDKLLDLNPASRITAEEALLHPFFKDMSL
T1 sequence (Q9UBU7 whole entry partner): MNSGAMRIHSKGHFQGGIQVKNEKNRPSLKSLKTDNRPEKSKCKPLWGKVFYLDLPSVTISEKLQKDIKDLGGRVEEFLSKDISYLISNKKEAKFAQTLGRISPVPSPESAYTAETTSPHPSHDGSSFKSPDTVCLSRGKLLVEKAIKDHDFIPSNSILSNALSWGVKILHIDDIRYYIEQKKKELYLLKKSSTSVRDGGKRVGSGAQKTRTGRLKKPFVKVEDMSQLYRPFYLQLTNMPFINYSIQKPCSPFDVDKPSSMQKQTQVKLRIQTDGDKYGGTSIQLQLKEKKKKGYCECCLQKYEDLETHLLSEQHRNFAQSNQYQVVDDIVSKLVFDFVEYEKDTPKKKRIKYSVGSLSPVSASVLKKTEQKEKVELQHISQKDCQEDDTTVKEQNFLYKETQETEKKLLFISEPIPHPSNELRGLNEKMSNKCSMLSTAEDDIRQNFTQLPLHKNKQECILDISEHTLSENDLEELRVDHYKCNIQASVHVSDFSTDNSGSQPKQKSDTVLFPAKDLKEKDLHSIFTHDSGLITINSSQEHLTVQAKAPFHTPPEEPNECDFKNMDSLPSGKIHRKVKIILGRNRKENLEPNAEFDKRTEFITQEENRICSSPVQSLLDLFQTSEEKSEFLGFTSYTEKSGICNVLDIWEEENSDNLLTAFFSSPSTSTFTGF

As to `C[C@@H]1CNCCN1c1nc(-c2cn[nH]c2C(F)(F)F)[nH]c(=O)c1Cl` [Compound 44, 5-chloro-4-[(2R)-2-methylpiperazin-1-yl]-2-[5-(trifluoromethyl)-1H-pyrazol-4-yl]-1H-pyrimidin-6-one], the EC50 on Cdc7 [1] was 0.724 µM.
On to `Cc1ncsc1-c1nc(N2CCN[C@@H](C(F)(F)F)C2)c(Cl)c(=O)[nH]1` [Compound 28, 5-chloro-2-(4-methylthiazol-5-yl)-4-[(3R)-3-(trifluoromethyl)piperazin-1-yl]-1H-pyrimidin-6-one], for which the EC50 at Cdc7 [2] was 0.0457 µM; at Cdc7 [1] it was 1.1 µM.
On the same counts, the results for `Cc1ncsc1-c1nc(C2CCOCC2)c(Cl)c(=O)[nH]1` [Compound 6, 5-chloro-2-(4-methylthiazol-5-yl)-4-tetrahydropyran-4-yl-1H-pyrimidin-6-one] are 0.107 µM and 2.09 µM.
`O=c1[nH]c(-c2cn[nH]c2C(F)(F)F)nc(C2CCOCC2)c1Cl` [Compound 17, 5-chloro-4-tetrahydropyran-4-yl-2-[5-(trifluoromethyl)-1H-pyrazol-4-yl]-1H-pyrimidin-6-one]: the EC50 on Cdc7 [2] was 0.112 µM.
For the compound `O=c1[nH]c(-c2scnc2C(F)(F)F)nc(C2CCOCC2)c1Cl` [Compound 14, 5-chloro-4-tetrahydropyran-4-yl-2-[4-(trifluoromethyl)thiazol-5-yl]-1H-pyrimidin-6-one], the EC50 was 0.158 µM on Cdc7 [2] and 2.45 µM at Cdc7 [1].
With `O=c1[nH]c(-c2scnc2Cl)nc(C2CCOCC2)c1Cl` [Compound 4, 5-chloro-2-(4-chlorothiazol-5-yl)-4-tetrahydropyran-4-yl-1H-pyrimidin-6-one], the EC50 at Cdc7 [2] is 0.0457 µM; at Cdc7 [1], 1.48 µM.
In the case of `C[C@@H]1CNCCN1c1nc(-c2cn[nH]c2Cl)[nH]c(=O)c1Cl` [Compound 43, 5-chloro-2-(5-chloro-1H-pyrazol-4-yl)-4-[(2R)-2-methylpiperazin-1-yl]-1H-pyrimidin-6-one], the EC50 on Cdc7 [1] is 0.347 µM.
With `C[C@@H]1COCCN1c1nc(-c2cn[nH]c2C(F)(F)F)[nH]c(=O)c1Cl` [Compound 41, 5-chloro-4-[(3R)-3-methylmorpholin-4-yl]-2-[5-(trifluoromethyl)-1H-pyrazol-4-yl]-1H-pyrimidin-6-one], on Cdc7 [1], the EC50 was 0.316 µM.
